Data: patent publication US9327009B2, “Peptide inhibitors as novel anti-HIV therapeutics” (Council of Scientific & Industrial Research, priority 2012, dated 2016)

molecular target: Nef-ASK1 interaction (UniProt P03404+Q99683); details: ATCC CRL-1573 cells co-transfected with Nef-ASK1g, 48 hours; ASK-1 alone 43.15, ASK-1 + Nef (background) 22.15, control 11.0
Method: HEK 293 cells were grown in Minimal Essential medium (low glucose, Sigma) supplemented with 10% fetal bovine serum, penicillin (100 units/ml), streptomycin (100 μg/ml) and Gentamycin (50 μg/ml) at 37° C. with 5% CO2. 1×10^5 cells were seeded per well in twenty four well plates, one day before transfection. Using commercially available ExGen 500 (fermentas) transfection reagent, all the required endotoxin free plasmid constructs were co-transfected into HEK 293 cells. 0.75 microgram of each plasmid and 5.0 micro liters per well ExGen 500 reagent were used. 48 h post transfection the cells were harvested and Luciferase activity was monitored using the Dual-Luciferase® Reporter assay kit (Promega). The data for basal control were used for the conversion of Luciferase activity to fold activation. As a positive control, the protein-protein interaction vectors pACTMyoD and pBIND-ID encoding the MyoD and ID control proteins, provided with the kit were used.
The ASK1g, h, i,j fragments alone and with Nef were transfected in ATCC CRL-1573™ cells. The transfected cells were cultured for 48 hours and were labeled with AnnexinV and PI staining for analyzing aspoptosis.
Inhibitors were designed from the crystal structure of Nef solved in our laboratory (Pankaj et al., 2011) The inhibitors were cultured with cells transfected will Nef, ASK1g and co-transfected with Nef-ASK1g. The cells after 48 hours were analysed for apoptosis using annexin V and PI staining.

TPGPGVRYP [Peptide-1] and PVRPQVPLRP [Peptide-5] are the same in “% of Annexin V cells means apoptotic cells” value: 22.45% for the first, 22.45% for the second.

Going from GENNCLLH [Peptide-2] to LHGMEDPE [Peptide-4], the “% of Annexin V cells means apoptotic cells” value falls from 24.96% to 23.0%.

DEVGEANN [Peptide-3] was tested, and the “% of Annexin V cells means apoptotic cells” value was 40.37%.
